The values that follow are results of earlier work, collected in US20110244057A1, “COMBINATION THERAPIES WITH TOPIRAMATE FOR SEIZURES, RESTLESS LEGS SYNDROME, AND OTHER NEUROLOGICAL CONDITIONS” (priority 2008, published 2011).

The subject of data set [1] is kindled seizures. To be noted: rats; Wauquier and Zhou, Epilepsy Res. 24:73-77, 1996.
The conditions of data set [2]: doses of 100 mg/day and 200 mg/day; Romigi et al., J. Neurology, 2007.

With `CC1(C)O[C@@H]2[C@@H](CO[C@@]3(COS(N)(=O)=O)OC(C)(C)O[C@@H]23)O1` [topiramate, 2,3:4,5-bis-O-(1-methylethyldiene)-β-D-fructopyranose sulfamate], in data set [1], the “effect on kindled seizures” value is “blocks kindled seizures”. Moreover, in data set [2], the “induction of Restless Leg Syndrome (RLS)” value is listed as “cause RLS”.
